Experimental data from PubChem BioAssay AID1963827 (Molecular Pharmacology Branch, DTP, NCI, 2024).
pIC50: −log10 of the molar value.

System: 994946-033-R-J1-PDC complex spheroid viability
Experiment: Anticancer human tumor 994946-033-R-J1-PDC patient-derived melanoma cell line growth inhibition [POLQ]
Conditions: for pIC50: curve of first compound; for viability, T/C: stronger effect = lower value
Method in brief: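 Patient-derived tumour cells were co-cultured with HUVEC and mesenchymal stem cells as multicellular spheroids at 37 °C. They were treated with POLQ inhibitors (novobiocin, ART-558, RP6685) alone or combined with other agents. Top concentrations were at or near clinical Cmax (otherwise 10 microM; SN-38 at 1 microM), decreasing in half-log steps.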

[1] = second compound 0.0316 µM, first compound 0.0316 µM
[2] = second compound 0.0316 µM, first compound 0.1 µM
[3] = second compound 0.0316 µM, first compound 0.316 µM
[4] = second compound 0.0316 µM, first compound 1 µM
[5] = second compound 0.1 µM, first compound 0.0316 µM
[6] = second compound 0.1 µM, first compound 0.1 µM
[7] = second compound 0.1 µM, first compound 0.316 µM
[8] = second compound 0.1 µM, first compound 1 µM
[9] = second compound 0.316 µM, first compound 0.0316 µM
[10] = second compound 0.316 µM, first compound 0.1 µM
[11] = second compound 0.316 µM, first compound 0.316 µM
[12] = second compound 0.316 µM, first compound 1 µM
[13] = second compound 1 µM, first compound 0.0316 µM
[14] = second compound 1 µM, first compound 0.1 µM
[15] = second compound 1 µM, first compound 0.316 µM
[16] = second compound 1 µM, first compound 1 µM
[17] = second compound 3.16 µM, first compound 0.0316 µM
[18] = second compound 3.16 µM, first compound 0.1 µM
[19] = second compound 3.16 µM, first compound 0.316 µM
[20] = second compound 3.16 µM, first compound 1 µM
[21] = second compound 10 µM, first compound 0.0316 µM
[22] = second compound 10 µM, first compound 0.1 µM
[23] = second compound 10 µM, first compound 0.316 µM
[24] = second compound 10 µM, first compound 1 µM
[25] = second compound 0.0316 µM, first compound 3.16 µM
[26] = second compound 0.0316 µM, first compound 10 µM
[27] = second compound 0.1 µM, first compound 3.16 µM
[28] = second compound 0.1 µM, first compound 10 µM
[29] = second compound 0.316 µM, first compound 3.16 µM
[30] = second compound 0.316 µM, first compound 10 µM
[31] = second compound 1 µM, first compound 3.16 µM
[32] = second compound 1 µM, first compound 10 µM
[33] = second compound 3.16 µM, first compound 3.16 µM
[34] = second compound 3.16 µM, first compound 10 µM
[35] = second compound 10 µM, first compound 3.16 µM
[36] = second compound 10 µM, first compound 10 µM
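Further: spheroids exposed to drugs for 7 days.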
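Wherever viability, T/C is given: 100% = DMSO vehicle treated spheroids.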

CCc1c2c(nc3ccc(O)cc13)-c1cc3c(c(=O)n1C2)COC(=O)[C@]3(O)CC + Nc1ccc(C#CCN(C(=O)Cc2ncc(C(F)(F)F)cc2C(F)(F)F)c2ccc(F)cc2)nn1
pIC50 (second compound 0.0316 µM): > 8.50
pIC50 (second compound 0.1 µM): > 8.50
pIC50 (second compound 0.316 µM): > 8.50
pIC50 (second compound 1 µM): > 8.50
pIC50 (second compound 3.16 µM): > 8.50
pIC50 (second compound 10 µM): > 8.50
viability, T/C (second compound 0.0316 µM, first compound 0.00316 µM): 27%
viability, T/C (second compound 0.0316 µM, first compound 0.01 µM): 13.4%
viability, T/C [1]: 8.88%
viability, T/C [2]: 5.83%
viability, T/C [3]: 4.85%
viability, T/C [4]: 1.91%
viability, T/C (second compound 0.1 µM, first compound 0.00316 µM): 23.6%
viability, T/C (second compound 0.1 µM, first compound 0.01 µM): 11.1%
viability, T/C [5]: 7.44%
viability, T/C [6]: 6.7%
viability, T/C [7]: 7.41%
viability, T/C [8]: 2.23%
viability, T/C (second compound 0.316 µM, first compound 0.00316 µM): 29.8%
viability, T/C (second compound 0.316 µM, first compound 0.01 µM): 10.9%
viability, T/C [9]: 8.12%
viability, T/C [10]: 7.25%
viability, T/C [11]: 6.69%
viability, T/C [12]: 2.59%
viability, T/C (second compound 1 µM, first compound 0.00316 µM): 20.8%
viability, T/C (second compound 1 µM, first compound 0.01 µM): 12.1%
viability, T/C [13]: 6.5%
viability, T/C [14]: 9.5%
viability, T/C [15]: 5.03%
viability, T/C [16]: 2.07%
viability, T/C (second compound 3.16 µM, first compound 0.00316 µM): 26.3%
viability, T/C (second compound 3.16 µM, first compound 0.01 µM): 16.2%
viability, T/C [17]: 8.04%
viability, T/C [18]: 6.61%
viability, T/C [19]: 6.79%
viability, T/C [20]: 1.91%
viability, T/C (second compound 10 µM, first compound 0.00316 µM): 28%
viability, T/C (second compound 10 µM, first compound 0.01 µM): 14.1%
viability, T/C [21]: 5.91%
viability, T/C [22]: 7.41%
viability, T/C [23]: 8.18%
viability, T/C [24]: 2.64%

C=CC(=O)N1CCN(c2nc(=O)n(-c3c(C)ccnc3C(C)C)c3nc(-c4c(O)cccc4F)c(F)cc23)C(C)C1 (stereo unspecified) + COC1C(OC(N)=O)C(O)C(Oc2ccc3c(O)c(NC(=O)c4ccc(O)c(CC=C(C)C)c4)c(=O)oc3c2C)OC1(C)C
pIC50 (second compound 0.0316 µM): < 5.00
pIC50 (second compound 0.1 µM): < 5.00
pIC50 (second compound 0.316 µM): < 5.00
pIC50 (second compound 1 µM): < 5.00
pIC50 (second compound 3.16 µM): < 5.00
pIC50 (second compound 10 µM): < 5.00
viability, T/C [1]: 80.4%
viability, T/C [2]: 110%
viability, T/C [3]: 104%
viability, T/C [4]: 101%
viability, T/C [25]: 104%
viability, T/C [26]: 95.5%
viability, T/C [5]: 102%
viability, T/C [6]: 105%
viability, T/C [7]: 87.5%
viability, T/C [8]: 99.5%
viability, T/C [27]: 90.8%
viability, T/C [28]: 114%
viability, T/C [9]: 92.8%
viability, T/C [10]: 111%
viability, T/C [11]: 119%
viability, T/C [12]: 99%
viability, T/C [29]: 138%
viability, T/C [30]: 104%
viability, T/C [13]: 112%
viability, T/C [14]: 93.5%
viability, T/C [15]: 118%
viability, T/C [16]: 85.9%
viability, T/C [31]: 112%
viability, T/C [32]: 75.7%
viability, T/C [17]: 94%
viability, T/C [18]: 108%
viability, T/C [19]: 113%
viability, T/C [20]: 105%
viability, T/C [33]: 93.3%
viability, T/C [34]: 115%
viability, T/C [21]: 98.1%
viability, T/C [22]: 81.7%
viability, T/C [23]: 99.9%
viability, T/C [24]: 124%
viability, T/C [35]: 86.9%
viability, T/C [36]: 105%

COc1cccc2c1C(=O)c1c(O)c3c(c(O)c1C2=O)CC(O)(C(=O)CO)CC3OC1CC(N)C(O)C(C)O1 (stereo unspecified) + Nc1ccc(C#CCN(C(=O)Cc2ncc(C(F)(F)F)cc2C(F)(F)F)c2ccc(F)cc2)nn1
pIC50 (second compound 0.0316 µM): > 7.50
pIC50 (second compound 0.1 µM): > 7.50
pIC50 (second compound 0.316 µM): > 7.50
pIC50 (second compound 1 µM): > 7.50
pIC50 (second compound 3.16 µM): > 7.50
pIC50 (second compound 10 µM): > 7.50
viability, T/C [1]: 39.1%
viability, T/C [2]: 8.96%
viability, T/C [3]: 4.51%
viability, T/C [4]: 0.95%
viability, T/C [25]: 0.91%
viability, T/C [26]: 1.45%
viability, T/C [5]: 47.5%
viability, T/C [6]: 11.3%
viability, T/C [7]: 7.5%
viability, T/C [8]: 1.92%
viability, T/C [27]: 1.44%
viability, T/C [28]: 1.04%
viability, T/C [9]: 38%
viability, T/C [10]: 13.6%
viability, T/C [11]: 5.83%
viability, T/C [12]: 0.57%
viability, T/C [29]: 1.8%
viability, T/C [30]: 1.29%
viability, T/C [13]: 47.9%
viability, T/C [14]: 10%
viability, T/C [15]: 4.77%
viability, T/C [16]: 0.51%
viability, T/C [31]: 1.35%
viability, T/C [32]: 0.99%
viability, T/C [17]: 32.4%
viability, T/C [18]: 13.9%
viability, T/C [19]: 4.86%
viability, T/C [20]: 1.22%
viability, T/C [33]: 1.11%
viability, T/C [34]: 1%
viability, T/C [21]: 35.3%
viability, T/C [22]: 14.7%
viability, T/C [23]: 3.59%
viability, T/C [24]: 1.41%
viability, T/C [35]: 0.94%
viability, T/C [36]: 1.07%
